Entries after “also recorded” stand apart in the source; their conditions may differ.
Legend:
[1] = tested on: anesthetized rabbits made hypertensive by AII infusion; assay: In vivo: anesthetized rabbits made hypertensive by AII infusion, IV boluses of compound; parameters: species or system New Zealand White rabbits; conditions: for AII antagonistic effect: doses of 2 and 3.5 mol, cumulative IV boluses, potency order 22, 20, 15, 18, 23, 21, 30, 29; for in vivo antihypertensive potency / activity, relative, in words: anesthetized rabbits, angiotensin II-induced hypertension
Experimental: The applicant has also established an in vivo assay using anesthetized rabbits in [Onassis 30 Cardiac Institute] which allows us to estimate relative potencies.
The assay is a routine assay and constitutes a convenient method to measure activities of AII antagonists.
In vivo experiments: Adult normotensive male New Zealand White rabbits weighing between 2.5 and 3.3 kg were used in the study following previously described methods.^46,47 In brief, animals were anesthetized by pentobarbitone (30 mg/kg), intubated and mechanically ventilated with 100% oxygen using a respirator for small animals (MD Industries, Mobile, Ala., USA). The tidal volume was 15 ml and the rate was adjusted to keep blood gases within normal rage. Two polyethylene catheters were inserted, one in the carotid artery for continuous blood pressure monitoring via a transducer attached to a multichannel recorder (Nihon-Kohden, Model 6000, Japan) and the other one in the jugular vein for the administrations of solution made by diluting Angiotensin II (AII) (Hypertensin, CIBA) in 5% dextrose at final concentration of 5 µg/ml. Based on previous testing with this rabbit preparation submaximal angiotensin II-dependent hypertension was induced by infusing Angiotensin via a syringe pump (Harvard Apparatus Pump 22, Harvard Apparatus, Natick. Mass., USA) at a constant rate of 0.2 ml/min ([…]). […] Five minutes after the establishment of hypertension, two cumulative IV boluses of each compound (2 and 3.5 mol) were given via an ear vein 20 minutes apart. The blood pressure was monitored for 20 minutes after the second bolus and then angiotensin infusion was halted and blood pressure was recorded for an additional period of 20 minutes until the end of the experiment. Boluses of the same dose of Losartan, as positive control, were used in the same experimental model.
The antihypertensive effect and the degree of potency of these compounds were tested in a preparation of anesthetized rabbits made hypertensive by AII infusion.

[2] = tested on: conscious rabbits made hypertensive by angiotensin II infusion; conditions: 15 mg mixed with vaseline applied on bare skin
Excerpt: Conscious rabbits were made hypertensive by angiotensin II infusion. A mixture of 1 5 mgr of our lipophilic angiotensin II receptor blocker compound 20 (or its dialkylated counterpart) with vaseline was applied on bare skin.

human AT1 = biological target: T1, human AT1 (Homo sapiens, UniProt P30556); assay: In vitro binding, membranes containing AT1 receptor, radioligand [125I]Sar1,Ile8-Angiotensin II
T1 construct: purchased PerkinElmer Life Sciences, Inc., Boston, Mass., USA
T1 sequence (P30556 1-359): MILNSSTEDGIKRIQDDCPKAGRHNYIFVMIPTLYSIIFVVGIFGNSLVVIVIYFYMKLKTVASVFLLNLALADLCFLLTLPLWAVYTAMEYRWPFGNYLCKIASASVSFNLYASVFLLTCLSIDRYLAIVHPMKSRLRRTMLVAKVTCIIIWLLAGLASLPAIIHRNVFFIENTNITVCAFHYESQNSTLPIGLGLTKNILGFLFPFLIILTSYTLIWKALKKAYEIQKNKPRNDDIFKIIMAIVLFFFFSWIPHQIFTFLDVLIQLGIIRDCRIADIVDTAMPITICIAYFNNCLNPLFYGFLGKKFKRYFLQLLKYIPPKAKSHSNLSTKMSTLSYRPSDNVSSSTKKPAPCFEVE

rat isolated uterus = conditions: cited from earlier work
anesthesized rabbits = conditions: rabbit, in vivo; cited from earlier work

Compound | AII antagonistic effect [1] | in vivo antihypertensive potency / activity, relative, in words [1] | also measured
Cc1cn(C(c2ccccc2)(c2ccccc2)c2ccccc2)cn1 [Compound 15, 3-(Triphenylmethyl)-5-methylimidazole] | dose-dependent AII antagonistic effect | – | –
CCCCc1cncn1Cc1ccc(-c2ccccc2-c2nnn(C(c3ccccc3)(c3ccccc3)c3ccccc3Cl)n2)cc1 [Compound 18, 5-Butyl-1-[[2′-[[N-(2-chloro-triphenylmethyl)]tetrazol-5-yl]biphenyl-4-yl]methyl]imidazole] | dose-dependent AII antagonistic effect | more potent; also recorded: less potent compared to 20 and 25 | –
CCCCc1cnc(CO)n1Cc1ccc(-c2ccccc2-c2nnn(C(c3ccccc3)(c3ccccc3)c3ccccc3Cl)n2)cc1 [Compound 20, 5-Butyl-2-hydroxymethyl-1-[[2′-[[N-(2-chloro-triphenylmethyl)]tetrazol-5yl]biphenyl-4-yl]methyl]imidazole] | dose-dependent AII antagonistic effect | highly potent; also recorded: more potent compared to 18; also recorded: most potent | blood pressure lowered by [2]: 20 mmHg; duration of blood pressure lowering [2]: two; affinity for AT1 receptor, in words, relative to Losartan (human AT1; in vitro binding studies): lower affinity
Cc1cnc(CO)n1Cc1ccc(-c2ccccc2-c2nnn(C(c3ccccc3)(c3ccccc3)c3ccccc3Cl)n2)cc1 [Compound 21, 5-Methyl-2-hydroxymethyl-1-[[2′-[[N-(2-chloro-triphenylmethyl)]tetrazol-5-yl]biphenyl-4-yl]methyl]imidazole] | dose-dependent AII antagonistic effect | less potent; also recorded: least active | –
CCCCc1cnc(CO)n1Cc1ccc(-c2ccccc2-c2nnn[nH]2)cc1 [Compound 22, 5-butyl-2-hydroxymethyl-1-[[2′-(1H-tetrazol-5-yl)biphenyl-4-yl]methyl]imidazole] | dose-dependent AII antagonistic effect | highly potent; also recorded: more potent compared to 18; also recorded: slightly superior in activity; also recorded: most potent | fold lower affinity for the AT1 receptor than that of Losartan (human AT1; from IC50 values): ~3 fold; IC50 (human AT1; membranes containing AT1 receptors, competition with 0.1 nM [125I]Sar1,Ile8-Angiotensin II, read-out: IC50, affinity for the AT1 receptor): 53.8 ± 6.4 nM
Cc1cnc(CO)n1Cc1ccc(-c2ccccc2-c2nnn[nH]2)cc1 [Compound 23, 5-methyl-2-hydroxymethyl-1-[[2′-(1H-tetrazol-5-yl)biphenyl-4-yl]methyl]imidazole] | dose-dependent AII antagonistic effect | less potent | –
CCCCc1cncn1Cc1ccc(-c2ccccc2-c2nnnn2Cc2ccccc2)cc1 [Compound 24, 1-[[2′-[(N-benzyl)tetrazol-5-yl]biphenyl-4-yl]methyl]-5-butylimidazole] | – | – | melting point: 69 to 71 °C
CCCCc1cnc(CO)n1Cc1ccc(-c2ccccc2-c2nnnn2Cc2ccccc2)cc1 [Compound 25, 1-[[2′-[(N-benzyl)tetrazol-5-yl]biphenyl-4-yl]methyl]-5-butyl-2hydroxymethyl imidazole] | – | more potent compared to 18; also recorded: most potent | –
c1ccc(Cn2nnnc2-c2ccccc2-c2ccc(Cn3cnc4ccccc43)cc2)cc1 [Compound 28, 1-[[2′-[(N-benzyl)tetrazol-5-yl]biphenyl-4-yl]methyl]benzimidazole] | – | even less potent | melting point: 62 to 64 °C
OCc1nc2ccccc2n1Cc1ccc(-c2ccccc2-c2nnnn2Cc2ccccc2)cc1 [Compound 29, 1-[[2′-[(N-benzyl)tetrazol-5-yl]biphenyl-4-yl]methyl]-2-hydroxymethyl benzimidazole] | dose-dependent AII antagonistic effect | even less potent | melting point: 62 to 63 °C
OCc1nc2ccccc2n1Cc1ccc(-c2ccccc2-c2nnn[nH]2)cc1 [Compound 30, 2-hydroxymethyl-1-[[2′-(1H-tetrazol-5-yl)biphenyl-4-yl]methyl]benzimidazole] | dose-dependent AII antagonistic effect | even less potent; also recorded: least active | –
[Sar^1, Lys^3, Glu^5] ANG II | – | – | activity in the rat uterus assay (rat isolated uterus): agonist activity; activity in anesthesized rabbits (anesthesized rabbits): agonist activity
